# Test results as given in ChEMBL document CHEMBL4828735, “Discovery of N-((3S,4S)-4-(3,4-Difluorophenyl)piperidin-3-yl)-2-fluoro-4-(1-methyl-1H-pyrazol-5-yl)benzamide (Hu7691), a Potent and Selective Akt Inhibitor That Enables Decrease of Cutaneous Toxicity” (J Med Chem, 2021).
# The source made the active and inactive calls. The rule behind the calls is not given here.
# Experiments:
# SMMC-7721 = experiment: Antiproliferative activity against human SMMC-7721 cells assessed as inhibition of cell growth incubated for 72 hrs by SRB method; type: functional, cell-based; conditions: SMMC-7721, 72 h
# [1] = Toxicity in mouse assessed as brownish watery stool at 150 mg/kg; type: organism-based; conditions: in vivo
# [2] = Toxicity in Beagle dog assessed as thymic atrophy at 100 mg/kg; type: organism-based, Canis lupus familiaris; conditions: in vivo
# Cytochrome P450 2C8 = Cytochrome P450 2C8 (Homo sapiens, UniProt P10632); experiment: Inhibition of CYP2C8 (unknown origin); type: ADME
# [3] = Toxicity in Sprague-Dawley rat assessed as increase in body weight at 25 to 50 mg/kg administered daily for 4 weeks; type: organism-based; conditions: in vivo, 672 h, dose 25-50 mg/kg
# [4] = Toxicity in BALB/c nude mouse xenografted with human KHOS cells assessed as mortality at 12.5 to 50 mg/kg, ig administered once daily for 22 days; type: organism-based; conditions: in vivo, po, 528 h, dose 12.5-50 mg/kg, time 22 day
# [5] = Toxicity in mouse assessed as maximum toxicity dose; conditions: in vivo
# KHOS/NP [6] = experiment: Antiproliferative activity against human KHOS cells assessed as inhibition of cell growth incubated for 72 hrs by SRB method; type: functional, cell-based
# [7] = Toxicity in BALB/c nude mouse xenografted with human KHOS cells assessed as change in body weight at 12.5 to 50 mg/kg, ig administered once daily for 22 days; type: organism-based; conditions: in vivo, po, 528 h, dose 12.5-50 mg/kg, time 22 day
# [8] = Inhibition of PKA (unknown origin); set-up: species or system Homo sapiens
# [9] = Tmax in Beagle dog at 20 mg/kg, ig measured upto 96 hrs by LC-MS/MS analysis; type: ADME, organism-based, Canis lupus familiaris; conditions: in vivo, po
# [10] = Antiproliferative activity against human HPDE6c7 cells assessed as inhibition of cell growth incubated for 72 hrs by SRB method; type: cell-based; conditions: HPDE6c7, 72 h
# [11] = Toxicity in Sprague-Dawley rat assessed as effect on uterus at 25 to 75 mg/kg administered daily for 4 weeks by histopathological analysis; type: organism-based; conditions: in vivo, 672 h, dose 25-75 mg/kg
# [12] = Drug metabolism in po dosed Sprague-Dawley rat bile assessed as M2 metabolite formation measured upto 24 hrs by UPLC-TOF-MS/MS analysis; type: ADME, organism-based; conditions: in vivo
# [13] = AUC(0 to t) in Sprague-Dawley rat at 15 mg/kg, ig measured upto 72 hrs by LC-MS/MS analysis; type: ADME, organism-based; set-up: route […], dose 15 mg/kg, time <=72; conditions: in vivo, po
# HGC-27 = experiment: Antiproliferative activity against human HGC-27 cells assessed as inhibition of cell growth incubated for 72 hrs by SRB assay; type: functional, cell-based; conditions: HGC-27, 72 h
# [14] = Drug metabolism in po dosed Sprague-Dawley rat feces assessed as M5 metabolite formation measured upto 24 hrs by UPLC-TOF-MS/MS analysis; type: ADME, organism-based; conditions: in vivo
# [15] = Toxicity in mouse assessed as prone posture at 150 mg/kg; type: organism-based; conditions: in vivo
# [16] = Toxicity in Sprague-Dawley rat assessed as increase in body weight at 75 mg/kg administered daily for 4 weeks; type: organism-based; conditions: in vivo, 672 h
# KHOS/NP [17] = experiment: Antitumor activity against human KHOS cells xenografted in dosed BALB/c nude mouse assessed as tumor growth inhibition at 25 mg/kg, ig administered once daily for 22 days; type: functional, organism-based; conditions: time 22.0 day
# [18] = biological target: Ribosomal protein S6 kinase alpha-1 (Homo sapiens, UniProt Q15418); experiment: Inhibition of RSK1 (unknown origin)
# [19] = Cmax in Sprague-Dawley rat at 2 mg/kg, iv measured upto 24 hrs by LC-MS/MS analysis; type: ADME, organism-based; set-up: route intravenous, dose 2 mg/kg, time <=24; conditions: in vivo
# [20] = Drug metabolism in po dosed Sprague-Dawley rat bile assessed as M5 metabolite formation measured upto 24 hrs by UPLC-TOF-MS/MS analysis; type: ADME, organism-based; conditions: in vivo
# [21] = Toxicity in Sprague-Dawley rat assessed as effect on thyroid at 25 to 75 mg/kg administered daily for 4 weeks by histopathological analysis; type: organism-based; conditions: in vivo, 672 h, dose 25-75 mg/kg
# [22] = Toxicity in BALB/c nude mouse xenografted with human 786-0 cells assessed as change in body weight at 12.5 to 50 mg/kg, ig administered once daily for 22 days; type: organism-based; conditions: in vivo, po, 528 h, dose 12.5-50 mg/kg, time 22 day
# [23] = Microsomal stability in dog liver microsomes assessed as intrinsic clearance at 50 uM preincubated for 5 mins with NADPH followed by compound addition and measured upto 60 mins by LC-MS/MS analysis; type: ADME, Canis lupus familiaris, Microsome; conditions: read-out: CLH
# [24] = Drug metabolism in po dosed Sprague-Dawley rat urine assessed as M1 metabolite formation measured upto 72 hrs by UPLC-TOF-MS/MS analysis; type: ADME, organism-based; conditions: in vivo
# HaCaT = experiment: Induction of apoptosis in human HaCaT cells assessed as cleaved caspase 3 level at 2.25 to 36 uM after 24 hrs by Western blot analysis; type: cell-based; conditions: dose 2.25-36 µM
# [25] = AUC(0 to infinity) in Sprague-Dawley rat at 15 mg/kg, ig measured upto 72 hrs by LC-MS/MS analysis; type: ADME, organism-based; set-up: route […], dose 15 mg/kg, time <=72; conditions: in vivo, po
# [26] = Microsomal stability in rat liver microsomes assessed as half life at 50 uM preincubated for 5 mins with NADPH followed by compound addition and measured upto 60 mins by LC-MS/MS analysis; type: ADME, Microsome
# Homo sapiens = species: Homo sapiens; experiment: Inhibition of PKA (unknown origin) at 0.5 uM
# [27] = Drug metabolism in po dosed Sprague-Dawley rat bile assessed as M1 metabolite formation measured upto 24 hrs by UPLC-TOF-MS/MS analysis; type: ADME, organism-based; conditions: in vivo
# [28] = biological target: Protein kinase C theta type (Homo sapiens, UniProt Q04759); experiment: Inhibition of PKCtheta (unknown origin)
# [29] = Microsomal stability in human liver microsomes assessed as intrinsic clearance at 50 uM preincubated for 5 mins with NADPH followed by compound addition and measured upto 60 mins by LC-MS/MS analysis; type: ADME, Microsome; conditions: read-out: CLH
# 786-0 = experiment: Antitumor activity against human 786-0 cells xenografted in ig dosed BALB/c nude mouse assessed as tumor growth inhibition administered once daily for 22 days; type: functional, organism-based; conditions: dose 12.5-50 mg/kg, time 22.0 day
# [30] = Tmax in Sprague-Dawley rat at 15 mg/kg, ig measured upto 72 hrs by LC-MS/MS analysis; type: ADME, organism-based; conditions: in vivo, po
# [31] = Toxicity in Sprague-Dawley rat assessed as change in cell population at 25 to 75 mg/kg administered daily for 4 weeks; type: organism-based; conditions: in vivo, 672 h, dose 25-75 mg/kg
# [32] = biological target: Mitogen-activated protein kinase 9 (Homo sapiens, UniProt P45984); experiment: Inhibition of JNK2 (unknown origin)
# [33] = Half life in Sprague-Dawley rat at 2 mg/kg, iv measured upto 24 hrs by LC-MS/MS analysis; type: ADME, organism-based; conditions: in vivo
# OVCAR-8 = experiment: Antiproliferative activity against human OVCAR-8 cells assessed as inhibition of cell growth incubated for 72 hrs by SRB method; type: functional, cell-based; conditions: OVCAR-8, 72 h
# Cytochrome P450 2D6 = Cytochrome P450 2D6 (Homo sapiens, UniProt P10635); experiment: Inhibition of CYP2D6 (unknown origin); type: ADME
# [34] = Half life in Beagle dog at 20 mg/kg, ig measured upto 96 hrs by LC-MS/MS analysis; type: ADME, organism-based, Canis lupus familiaris; conditions: in vivo, po
# [35] = Toxicity in Sprague-Dawley rat assessed as effect on stomach at 25 to 75 mg/kg administered daily for 4 weeks by histopathological analysis; type: organism-based; conditions: in vivo, 672 h, dose 25-75 mg/kg
# KHOS/NP [36] = experiment: Antitumor activity against human KHOS cells xenografted in ig dosed BALB/c nude mouse assessed as tumor growth inhibition administered once daily for 22 days; type: functional, organism-based; conditions: dose 12.5-50 mg/kg, time 22.0 day
# Chain of Mitogen-activated protein kinase 9 (P45984 whole entry): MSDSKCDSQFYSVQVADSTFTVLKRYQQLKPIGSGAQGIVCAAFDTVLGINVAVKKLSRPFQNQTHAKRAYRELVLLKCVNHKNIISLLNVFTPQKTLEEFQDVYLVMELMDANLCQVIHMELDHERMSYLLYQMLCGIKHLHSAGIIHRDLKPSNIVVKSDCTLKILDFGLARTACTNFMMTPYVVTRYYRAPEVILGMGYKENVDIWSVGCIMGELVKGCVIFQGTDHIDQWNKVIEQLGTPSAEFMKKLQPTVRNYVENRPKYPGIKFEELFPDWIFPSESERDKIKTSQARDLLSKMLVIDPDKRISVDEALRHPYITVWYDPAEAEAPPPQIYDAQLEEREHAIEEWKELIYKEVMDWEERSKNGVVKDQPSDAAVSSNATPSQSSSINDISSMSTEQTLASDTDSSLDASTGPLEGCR
# Chain of Ribosomal protein S6 kinase alpha-1 (Q15418 whole entry): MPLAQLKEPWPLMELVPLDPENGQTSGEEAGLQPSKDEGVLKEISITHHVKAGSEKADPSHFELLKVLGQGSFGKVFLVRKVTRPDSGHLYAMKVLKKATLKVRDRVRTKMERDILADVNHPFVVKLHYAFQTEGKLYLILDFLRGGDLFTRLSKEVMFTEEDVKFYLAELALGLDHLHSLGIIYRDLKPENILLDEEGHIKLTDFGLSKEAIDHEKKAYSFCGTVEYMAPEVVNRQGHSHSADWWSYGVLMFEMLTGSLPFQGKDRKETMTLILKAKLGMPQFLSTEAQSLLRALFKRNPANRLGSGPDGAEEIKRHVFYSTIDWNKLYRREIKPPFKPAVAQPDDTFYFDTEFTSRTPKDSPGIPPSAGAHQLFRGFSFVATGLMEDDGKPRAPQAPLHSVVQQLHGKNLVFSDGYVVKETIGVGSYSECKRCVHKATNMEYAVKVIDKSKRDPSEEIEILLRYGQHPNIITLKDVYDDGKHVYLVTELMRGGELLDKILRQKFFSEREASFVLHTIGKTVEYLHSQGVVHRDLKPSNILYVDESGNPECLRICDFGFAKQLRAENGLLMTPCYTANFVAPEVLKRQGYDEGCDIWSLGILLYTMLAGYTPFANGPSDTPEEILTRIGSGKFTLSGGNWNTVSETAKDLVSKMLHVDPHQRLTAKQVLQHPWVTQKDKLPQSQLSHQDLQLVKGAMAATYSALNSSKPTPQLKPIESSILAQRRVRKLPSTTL
# Chain of Cytochrome P450 2D6 (P10635 whole entry): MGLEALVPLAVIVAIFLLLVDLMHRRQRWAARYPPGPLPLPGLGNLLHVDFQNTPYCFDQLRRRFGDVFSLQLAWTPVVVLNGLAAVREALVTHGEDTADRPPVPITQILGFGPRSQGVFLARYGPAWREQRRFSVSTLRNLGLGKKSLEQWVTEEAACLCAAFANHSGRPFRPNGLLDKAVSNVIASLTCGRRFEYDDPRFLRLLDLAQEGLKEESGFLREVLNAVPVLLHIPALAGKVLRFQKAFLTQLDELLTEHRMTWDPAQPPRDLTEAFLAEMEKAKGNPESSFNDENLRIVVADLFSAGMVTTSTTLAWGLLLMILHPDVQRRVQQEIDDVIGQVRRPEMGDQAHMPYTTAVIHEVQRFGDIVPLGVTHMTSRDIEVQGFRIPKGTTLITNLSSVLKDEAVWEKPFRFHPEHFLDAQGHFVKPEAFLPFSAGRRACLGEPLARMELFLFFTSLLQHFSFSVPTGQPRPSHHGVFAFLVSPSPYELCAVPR
# Chain of Protein kinase C theta type (Q04759 whole entry): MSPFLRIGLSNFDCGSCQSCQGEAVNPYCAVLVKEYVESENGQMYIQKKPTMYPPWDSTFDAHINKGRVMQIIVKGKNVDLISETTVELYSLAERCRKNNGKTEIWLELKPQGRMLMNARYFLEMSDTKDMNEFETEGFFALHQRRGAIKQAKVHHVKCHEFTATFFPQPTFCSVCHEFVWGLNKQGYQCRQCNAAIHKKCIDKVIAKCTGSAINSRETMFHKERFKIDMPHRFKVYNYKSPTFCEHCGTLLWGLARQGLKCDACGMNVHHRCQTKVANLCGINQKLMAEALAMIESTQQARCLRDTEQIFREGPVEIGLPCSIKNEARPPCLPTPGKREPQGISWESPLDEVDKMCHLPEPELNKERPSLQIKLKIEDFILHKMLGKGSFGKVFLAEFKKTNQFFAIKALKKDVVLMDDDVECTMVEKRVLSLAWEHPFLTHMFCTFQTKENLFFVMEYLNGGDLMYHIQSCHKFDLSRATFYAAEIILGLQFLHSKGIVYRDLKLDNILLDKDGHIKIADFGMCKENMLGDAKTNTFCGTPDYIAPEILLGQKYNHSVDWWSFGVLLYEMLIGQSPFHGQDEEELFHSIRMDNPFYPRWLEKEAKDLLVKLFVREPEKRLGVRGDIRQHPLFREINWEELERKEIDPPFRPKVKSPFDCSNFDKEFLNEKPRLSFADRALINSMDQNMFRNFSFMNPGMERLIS
# Chain of Cytochrome P450 2C8 (P10632 whole entry): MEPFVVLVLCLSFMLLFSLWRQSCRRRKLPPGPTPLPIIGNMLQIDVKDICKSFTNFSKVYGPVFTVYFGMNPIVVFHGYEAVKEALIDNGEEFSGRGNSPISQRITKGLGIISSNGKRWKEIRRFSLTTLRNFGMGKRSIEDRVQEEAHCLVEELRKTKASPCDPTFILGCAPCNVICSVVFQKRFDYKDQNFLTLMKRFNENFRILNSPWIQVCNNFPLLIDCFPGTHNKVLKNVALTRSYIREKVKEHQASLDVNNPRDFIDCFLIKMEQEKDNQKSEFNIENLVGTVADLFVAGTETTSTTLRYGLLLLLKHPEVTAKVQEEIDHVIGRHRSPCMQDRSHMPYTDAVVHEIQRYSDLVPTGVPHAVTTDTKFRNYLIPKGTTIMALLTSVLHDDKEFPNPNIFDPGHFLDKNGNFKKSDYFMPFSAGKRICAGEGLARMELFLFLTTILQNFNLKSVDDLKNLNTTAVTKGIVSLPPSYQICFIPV
structure (smiles),measurement,setting,value
Cl.Cn1nccc1-c1ccc(C(=O)N[C@@H]2CNCC[C@H]2c2ccc(F)c(F)c2)c(F)c1,IC50,SMMC-7721,19.8 µM
same,Activity,[1],Toxic
same,Activity,[2],Toxic
same,IC50,Cytochrome P450 2C8,> 100 µM
same,Activity,[3],Toxic
same,Activity,[4],Non-Toxic
same,MTD,[5],150 mg/kg
same,IC50,KHOS/NP [6],7.47 µM
same,Activity,[7],Non-Toxic
same,IC50,[8],0.011 µM
same,Tmax,[9],8.67 h
same,IC50,[10],16.1 µM
same,Activity,[11],Non-Toxic
same,Drug metabolism,[12],Metabolite_Detected
same,AUC(0-t) at 72 h,[13],2280 ng·h/mL
same,IC50,HGC-27,0.68 µM
same,Drug metabolism,[14],Metabolite_Detected
same,Activity,[15],Toxic
same,Activity,[16],Non-Toxic
same,Activity,KHOS/NP [17],Active
same,IC50,[18],0.756 µM
same,Cmax,[19],208 ng/mL
same,Drug metabolism,[20],Metabolite_Detected
same,Activity,[21],Non-Toxic
same,Activity,[22],Non-Toxic
same,microsomal CLint at 50 µM,[23],4.1 µL/min/mg
same,Drug metabolism,[24],Metabolite_Detected
same,Activity,HaCaT,Non-Toxic
same,AUC(0-inf),[25],2820 ng·h/mL
same,half-life at 50 µM,[26],1.16 h
same,inhibition,Homo sapiens,Active
same,Drug metabolism,[27],Metabolite_Detected
same,IC50,[28],0.629 µM
same,microsomal CLint at 50 µM,[29],1.4 µL/min/mg
same,Activity,786-0,Dose-Dependent Effect
same,Tmax,[30],1.67 h
same,Activity,[31],Non-Toxic
same,IC50,[32],> 10 µM
same,half-life,[33],6.24 h
same,IC50,OVCAR-8,3.52 µM
same,IC50,Cytochrome P450 2D6,> 100 µM
same,half-life,[34],16.7 h
same,Activity,[35],Non-Toxic
same,Activity,KHOS/NP [36],Dose-Dependent Effect
